Measured values reported in PubChem BioAssay (NCI).
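Five compound concentrations were applied to cells in 96-well plates for 48 hours; endpoints were derived by simple linear interpolation of the resulting dose-response curve. The concentration for full growth arrest is given as TGI.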

Columns and labels:
Assay in all cases: NCI tumour cell line growth inhibition, 48 h
[1] = test system: A498 renal
[2] = test system: A549 NSCLC
[3] = test system: CAKI-1 renal
[4] = test system: CCRF-CEM leukemia
[5] = test system: COLO 205 colon
[6] = test system: DLD-1 colon
[7] = test system: DMS 273 small cell lung
[8] = test system: EKVX NSCLC
[9] = test system: HCC-2998 colon
[10] = test system: HCT-116 colon
[11] = test system: HCT-15 colon
[12] = test system: HL-60(TB) leukemia
[13] = test system: HOP-18 NSCLC
[14] = test system: HOP-62 NSCLC
[15] = test system: HOP-92 NSCLC
[16] = test system: HT29 colon
[17] = test system: IGROV1 ovarian
[18] = test system: K-562 leukemia
[19] = test system: KM12 colon
[20] = test system: KM20L2 colon
[21] = test system: LOX IMVI melanoma
[22] = test system: M19-MEL melanoma
[23] = test system: MALME-3M melanoma
[24] = test system: MCF7 breast
[25] = test system: NCI-H226 lung
[26] = test system: NCI-H23 lung
[27] = test system: NCI-H460 lung
[28] = test system: NCI-H522 lung
[29] = test system: NCI/ADR-RES ovarian
[30] = test system: OVCAR-3 ovarian
[31] = test system: OVCAR-4 ovarian
[32] = test system: OVCAR-5 ovarian
[33] = test system: OVCAR-8 ovarian
[34] = test system: P388 leukemia
[35] = test system: P388/ADR leukemia
[36] = test system: RPMI-8226 leukemia
[37] = test system: RXF 393 renal
[38] = test system: SF-268 CNS
[39] = test system: SF-295 CNS
[40] = test system: SF-539 CNS
[41] = test system: SK-MEL-2 melanoma
[42] = test system: SK-MEL-28 melanoma
[43] = test system: SK-MEL-5 melanoma
[44] = test system: SK-OV-3 ovarian
[45] = test system: SN12C renal
[46] = test system: SN12K1 renal
[47] = test system: SNB-19 CNS
[48] = test system: SNB-75 CNS
[49] = test system: SNB-78 CNS
[50] = test system: SW-620 colon
[51] = test system: U251 CNS
[52] = test system: UACC-257 melanoma
[53] = test system: UACC-62 melanoma
[54] = test system: UO-31 renal
[55] = test system: XF 498 CNS
[56] = test system: 786-0 renal
[57] = test system: ACHN renal
[58] = test system: DMS 114 small cell lung
[59] = test system: LXFL 529 NSCLC
[60] = test system: M14 melanoma
[61] = test system: MOLT-4 leukemia
[62] = test system: RXF-631 renal
[63] = test system: SR leukemia
[64] = test system: TK-10 renal

Structure (SMILES): CCCCC1(C2c3ccccc3Oc3ccccc32)C(=O)N(c2ccccc2)N(c2ccccc2)C1=O
- TGI [1]: > 100 µM
- TGI [2]: > 100 µM
- TGI [3]: > 29.6 µM
- TGI [4]: > 100 µM
- TGI [5]: > 100 µM
- TGI [6]: > 100 µM
- TGI [7]: > 100 µM
- TGI [8]: > 100 µM
- TGI [9]: > 94.5 µM
- TGI [10]: > 100 µM
- TGI [11]: > 100 µM
- TGI [12]: > 100 µM
- TGI [13]: > 100 µM
- TGI [14]: > 100 µM
- TGI [15]: > 100 µM
- TGI [16]: > 100 µM
- TGI [17]: > 100 µM
- TGI [18]: > 100 µM
- TGI [19]: > 100 µM
- TGI [20]: > 100 µM
- TGI [21]: > 100 µM
- TGI [22]: > 100 µM
- TGI [23]: > 100 µM
- TGI [24]: > 100 µM
- TGI [25]: > 100 µM
- TGI [26]: > 100 µM
- TGI [27]: > 100 µM
- TGI [28]: 13.1 µM
- TGI [29]: > 100 µM
- TGI [30]: > 100 µM
- TGI [31]: > 100 µM
- TGI [32]: > 100 µM
- TGI [33]: > 100 µM
- TGI [34]: 45.2 µM
- TGI [35]: > 100 µM
- TGI [36]: > 100 µM
- TGI [37]: > 100 µM
- TGI [38]: > 100 µM
- TGI [39]: > 100 µM
- TGI [40]: > 100 µM
- TGI [41]: > 100 µM
- TGI [42]: > 100 µM
- TGI [43]: > 100 µM
- TGI [44]: > 100 µM
- TGI [45]: > 100 µM
- TGI [46]: > 100 µM
- TGI [47]: > 100 µM
- TGI [48]: > 100 µM
- TGI [49]: > 88.5 µM
- TGI [50]: > 100 µM
- TGI [51]: > 100 µM
- TGI [52]: 99 µM
- TGI [53]: > 100 µM
- TGI [54]: > 100 µM
- TGI [55]: > 100 µM

Structure (SMILES): CCSC1=CC(Cc2ccc(OC)cc2)N(C(=O)OC)C1 (stereo not drawn)
- TGI [56]: > 100 µM
- TGI [1]: > 100 µM
- TGI [2]: > 100 µM
- TGI [57]: > 100 µM
- TGI [3]: > 100 µM
- TGI [4]: > 100 µM
- TGI [5]: > 100 µM
- TGI [6]: > 100 µM
- TGI [58]: 73.7 µM
- TGI [7]: > 100 µM
- TGI [8]: > 100 µM
- TGI [9]: > 100 µM
- TGI [10]: > 100 µM
- TGI [11]: > 100 µM
- TGI [12]: 60.1 µM
- TGI [13]: > 100 µM
- TGI [14]: > 100 µM
- TGI [15]: > 100 µM
- TGI [16]: > 100 µM
- TGI [17]: > 100 µM
- TGI [18]: > 100 µM
- TGI [19]: > 100 µM
- TGI [20]: > 100 µM
- TGI [21]: > 100 µM
- TGI [59]: > 100 µM
- TGI [60]: > 100 µM
- TGI [22]: > 100 µM
- TGI [23]: > 100 µM
- TGI [61]: > 100 µM
- TGI [25]: > 100 µM
- TGI [26]: > 100 µM
- TGI [27]: > 100 µM
- TGI [28]: > 100 µM
- TGI [30]: > 100 µM
- TGI [31]: > 100 µM
- TGI [32]: > 100 µM
- TGI [33]: > 100 µM
- TGI [37]: > 100 µM
- TGI [62]: > 100 µM
- TGI [38]: > 100 µM
- TGI [39]: > 100 µM
- TGI [40]: > 100 µM
- TGI [41]: > 100 µM
- TGI [42]: > 100 µM
- TGI [43]: > 100 µM
- TGI [44]: > 100 µM
- TGI [45]: > 100 µM
- TGI [47]: > 100 µM
- TGI [48]: > 100 µM
- TGI [49]: > 100 µM
- TGI [63]: > 100 µM
- TGI [50]: > 100 µM
- TGI [64]: > 100 µM
- TGI [51]: > 100 µM
- TGI [52]: > 100 µM
- TGI [53]: > 100 µM
- TGI [54]: > 100 µM
- TGI [55]: > 100 µM
